From ChEMBL document CHEMBL4138163, “DMXAA-pyranoxanthone hybrids enhance inhibition activities against human cancer cells with multi-target functions” (Eur J Med Chem, 2018) come the findings set out here.

Calls of active or inactive are those of the source. The rule behind the calls is not given here.

One data set has as its system MDA-MB-231. Put plainly: Antiproliferative activity against human MDA-MB-231 cells after 24 hrs by MTT assay. The class given is functional, cell-based. The note with it: MDA-MB-231, 24 h. For orientation: Tetrazolium assays rely on reduction of a dye to a coloured formazan, in cell work by metabolically active cells.
For the next data set, the system named is MCF7. Put plainly: Antiproliferative activity against human MCF7 cells after 24 hrs by MTT assay. The note with it: MCF7, 24 h. Format: functional, cell-based.
The subject of data set [1] is HepG2. As to the kind of experiment: Antiproliferative activity against human HepG2 cells after 24 hrs by MTT assay. The note with it: HepG2, 24 h. Format: functional, cell-based.
The test system of another data set is K562. As to the kind of experiment: Antiproliferative activity against human K562 cells after 24 hrs by MTT assay. The class given is functional, cell-based. To be noted: K562, 24 h.
In data set [2] the test system is L02. As to the kind of experiment: Antiproliferative activity against human HL-7702 cells after 24 hrs by MTT assay. Format: functional, cell-based. To be noted: L02, 24 h.
Data set [3] concerns NIH3T3. As to the kind of experiment: Antiproliferative activity against mouse NIH/3T3 cells after 24 hrs by MTT assay. The note with it: mouse, nih3t3, 24 h. Format: cell-based.
The test system of data set [4] is NIH3T3. Put plainly: Antiproliferative activity against mouse NIH/3T3 cells after 48 hrs by MTT assay. Format: cell-based. To be noted: nih3t3, 48 h.
For data set [5], the system named is L02. Put plainly: Antiproliferative activity against human HL-7702 cells after 48 hrs by MTT assay. The class given is functional, cell-based. The note with it: L02, 48 h.
Data set [6] is described as follows: Selectivity ratio of IC50 for human HL-7702 cells to IC50 for human HepG2 cells. Format: functional.
Data set [7] deals with HepG2. Put plainly: Induction of apoptosis in human HepG2 cells assessed as early apoptotic cells at 0.2 uM after 24 hrs by annexin-V/propidium iodide staining-based flow cytometric method relative to control. The class given is functional. On the technique in general: Flow cytometry measures light scatter and fluorescence of single cells or particles in a stream.
Data set [8] relates to HepG2. As to the kind of experiment: Induction of apoptosis in human HepG2 cells assessed as late apoptotic cells at 0.2 uM after 24 hrs by annexin-V/propidium iodide staining-based flow cytometric method relative to control. The class given is functional.
Data set [9] relates to HepG2. Put plainly: Induction of apoptosis in human HepG2 cells assessed as increase in cleaved caspase-3 levels at 0.2 uM after 24 hrs by Western blot method. Format: functional, cell-based.
For data set [10], the system named is HepG2. Put plainly: Induction of apoptosis in human HepG2 cells assessed as increase in cleaved caspase-9 levels at 0.2 uM after 24 hrs by Western blot method. The class given is functional, cell-based. For orientation: Immunoblotting shows a protein as a band on a membrane.
Data set [11] deals with HepG2. Put plainly: Induction of apoptosis in human HepG2 cells assessed as increase in cleaved PARP levels at 0.2 uM after 24 hrs by Western blot method. Format: functional, cell-based.
Data set [12] addresses Tumour suppressor p53/oncoprotein Mdm2 (Homo sapiens) (UniProt P04637+Q00987). As to the kind of experiment: Inhibition of MDM2/p53 interaction in human HepG2 cells assessed as increase in p53 to MDM2 ratio at 0.2 uM after 24 hrs by Western blot method (reference value: 0.083). The class given is cell-based.
Data set [13] relates to HepG2. As to the kind of experiment: Induction of apoptosis in human HepG2 cells assessed as downregulation of Bcl-xL expression at 0.2 uM after 24 hrs by Western blot method. Format: functional, cell-based.
In data set [14] the test system is HepG2. Put plainly: Induction of apoptosis in human HepG2 cells assessed as upregulation of Bid expression at 0.2 uM after 24 hrs by Western blot method. Format: functional, cell-based.
Data set [15] concerns HepG2. Put plainly: Induction of apoptosis in human HepG2 cells assessed as ratio of Bax/Bcl-2 at 0.2 uM after 24 hrs by Western blot method (reference value: 0.23). The class given is functional.
Data set [16] can be described thus: Half life in cell culture medium at 10 uM by HPLC method. Format: physicochemical.
A short description of data set [17]: Half life in Kunming mouse plasma at 10 uM by HPLC method. Format: ADME, cell-free.
The subject of data set [18] is HepG2. Put plainly: Cell cycle arrest in human HepG2 cells assessed as accumulation at S phase at 0.2 uM after 28 hrs by propidium iodide staining-based flow cytometric method relative to control.

Sequence of Tumour suppressor p53/oncoprotein Mdm2 (Homo sapiens) (P04637 whole entry, looked up): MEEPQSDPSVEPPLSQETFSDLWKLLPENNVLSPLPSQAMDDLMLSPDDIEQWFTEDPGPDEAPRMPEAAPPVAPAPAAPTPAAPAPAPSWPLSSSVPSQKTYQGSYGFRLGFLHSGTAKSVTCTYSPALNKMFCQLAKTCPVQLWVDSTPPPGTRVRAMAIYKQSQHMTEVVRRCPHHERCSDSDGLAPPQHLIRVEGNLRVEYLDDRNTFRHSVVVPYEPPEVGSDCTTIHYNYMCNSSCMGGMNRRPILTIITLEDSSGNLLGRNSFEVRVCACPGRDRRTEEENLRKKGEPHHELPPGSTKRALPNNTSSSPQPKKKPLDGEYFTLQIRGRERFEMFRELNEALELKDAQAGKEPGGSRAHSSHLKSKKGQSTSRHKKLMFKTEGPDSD
Sequence of Tumour suppressor p53/oncoprotein Mdm2 (Homo sapiens) (Q00987 whole entry, looked up): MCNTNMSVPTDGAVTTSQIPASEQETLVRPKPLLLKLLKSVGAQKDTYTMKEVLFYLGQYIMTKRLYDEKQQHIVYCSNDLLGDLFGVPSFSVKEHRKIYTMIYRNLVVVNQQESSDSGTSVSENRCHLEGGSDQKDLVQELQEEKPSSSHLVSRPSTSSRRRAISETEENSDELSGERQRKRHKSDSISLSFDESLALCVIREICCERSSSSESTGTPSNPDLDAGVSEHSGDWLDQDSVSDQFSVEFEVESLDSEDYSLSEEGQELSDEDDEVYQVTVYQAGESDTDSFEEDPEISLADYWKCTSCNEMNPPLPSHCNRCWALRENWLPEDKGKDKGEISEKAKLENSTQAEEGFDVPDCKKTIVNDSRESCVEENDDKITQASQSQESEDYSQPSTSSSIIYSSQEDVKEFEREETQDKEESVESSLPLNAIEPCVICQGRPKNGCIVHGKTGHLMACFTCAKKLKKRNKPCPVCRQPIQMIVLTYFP

For the compound `Cc1ccc2c(=O)c3cccc(CC(=O)OCCCCOc4c5c(cc6c(=O)c7ccccc7oc46)CCC(C)(C)O5)c3oc2c1C`, the IC50 (in general, the point on the concentration scale where inhibition reaches its midpoint) in the data set with MDA-MB-231 is 19.6 µM; in the data set on MCF7, 33.2 µM; in the data set on HepG2 [1] it was 11.9 µM; in the data set with K562 it was 20.6 µM.
For `Cc1ccc2c(=O)c3cccc(CC(=O)OCCCCCCOc4c5c(cc6c(=O)c7ccccc7oc46)CCC(C)(C)O5)c3oc2c1C`, the IC50 in the data set on MDA-MB-231 is 1.13 µM; with MCF7, 0.534 µM; in the data set on HepG2 [1], 0.216 µM; with K562, 9.13 µM; in the data set on L02 [2] it was 378 to 452 µM; in the data set with L02 [5], 293 to 352 µM. The Activity entry was “Non-Toxic” with NIH3T3 [3]; “Non-Toxic” in the data set on NIH3T3 [4]; 38% in the data set on HepG2 [7]; 42% in the data set with HepG2 [8]; 90% with HepG2 [18]. In addition, in data set [6], the “Ratio IC50” value was found to be 2092. Moreover, the result in the data set on HepG2 [9], in the data set on HepG2 [10], in the data set on HepG2 [11], in the data set with HepG2 [13] and with HepG2 [14] was Active. In addition, the fold change (FC) in data set [12] was found to be 0.81. Also, the Ratio with HepG2 [15] was determined as 0.87. In addition, the half-life (usually the time in which the quantity being followed falls by half) at 10 µM was 24.8 h in data set [16] and 4.2 h in data set [17].
On to `Cc1ccc2c(=O)c3cccc(CC(=O)OCCCOc4c5c(cc6c(=O)c7ccccc7oc46)CCC(C)(C)O5)c3oc2c1C`, for which the half-maximal inhibitory concentration (IC50) amounted to 32.2 µM in the data set with MDA-MB-231, 51.7 µM in the data set on MCF7, 32.7 µM with HepG2 [1] and 32.3 µM in the data set on K562.
